# In US20120015923A1, “USE OF ANDROGRAPHOLIDE COMPOUNDS FOR TREATING INFLAMMATION AND AIRWAY DISORDERS” (NATIONAL UNIVERSITY OF SINGAPORE, priority 2009, published 2012):
# What was measured:
# Type in all cases: in vivo, BALB/c mice
# [1] = system: IL-4, IL-5, IL-13, eotaxin and IFN-γ in the BAL fluid; test: Cytokine and chemokine levels in BAL fluid (ELISA), OVA mouse asthma model; conditions: OVA-challenged mice
# [2] = system: total IgE and OVA-specific IgE, IgG1, and IgG2a in serum; test: Serum Ig levels (ELISA), OVA mouse asthma model; conditions: OVA-challenged mice, serum 24 hours after last OVA aerosol; for serum OVA-specific IgE level: DDAG even at lowest dose 0.1 mg/kg
# Description: Blood collected from the hearts were allowed to clot for at least 4 h. Centrifugation at 3000 rpm for 5 min at 4° C. was then performed on all blood samples. The supernatant, which is the serum, was extracted carefully and stored at −80° C. The samples were kept for ELISA.
# Mice were anesthetized 24 hours after the last aerosol challenge and bronchoalveolar lavage (BAL) was performed as described above. BAL fluid total and differential cell counts, and cytokine and chemokine levels were determined as described above. Blood was collected by cardiac puncture, and serum levels of total IgE and OVA-specific IgE, IgG1, and IgG2a levels were determined.
# Levels of total IgE and OVA-specific IgE, IgG 1 , and IgG2a in serum were measured. 96-well ELISA plate coated with either 50 μl of capture antibody (for total IgE, 1:250 dilution with 1 M Na2CO3) or 50 μl of 20 μg/ml OVA (for OVA-specific IgE, IgG1, and IgG2a) overnight at 4° C. Next day, the plate was washed with washing buffer (PBS with 0.05% Tween-20 for total IgE; PBS with 0.1% Tween-20 for OVA-specific IgE) and blocked with 300 μl 10% FBS in PBS for 2 hr at room temperature. After blocking, standards (only for total IgE) and serum samples were loaded into respective wells and incubated for 2 h. Followed by washing, respective detective antibodies were added and incubated for 1 h, followed by 45 min incubation of HRP-conjugate antibody for 45 min in the dark. Substrates were then added for 30 min in the dark with mild shaking. Lastly, 50 μl of stopping solution (1 M H2SO4) was added to stop the reaction. The optical density of each well in the plate was read at 450 nm with λ correction at 570 nm. The detection limit for total IgE was 2 ng/ml.
# [3] = system: Nitric Oxide (NO); test: Serum nitrate nitrite level; conditions: OVA-challenged mice
# [4] = system: p65 NF-κB; test: p65 NF-κB nuclear translocation and DNA-binding in lung tissue nuclear extracts; conditions: 1 mg/kg; 24 hours after last OVA aerosol; reduced to the basal levels
# Description: Lung and cell culture nuclear proteins ([…]) were isolated. Lysates were incubated on ice for 30 min before centrifugation (18,000 g for 5 min). The supernatants were collected, and protein concentrations were determined using a BCA protein assay kit. 28 μl of the protein measured were mixed with 7 μl 5× sample buffer and boiled at 95° C. for 5 min. 10% SDS-PAGE gel was set as known in the art. The gel was placed in a Trans-Blot tank (Bio-Rad Laboratories, Hercules, Calif.). 30 μl of the sample mixtures and Pre-stained SDS Page Marker (Bio-Rad Laboratories, Hercules, Calif.) were loaded into respective wells and ran at 100V for 2 hours. The proteins were then transferred to a PVDF membrane using a semi-dry transblotter (ATTO Corp, Tokyo, Japan). The PVDF membrane was blocked with 5% non-fat milk in Tween-20 Tris buffered saline (TTBS) for 2 hours and probed with various primary antibodies in 1% non-fat milk in TTBS (1:2,000 for anti-rabbit antibodies; 1:5,000 for anti-mouse antibodies; 1:10,000 for β-actin) overnight at 4° C. The PVDF was then washed with TTBS for 10 times (2-3 min each), and incubated in HRP- or AP-conjugated anti-mouse or anti-rabbit antibodies for 1 hour. The membrane was again washed with TTBS. […]
# Nuclear proteins were also analyzed for NF-κB DNA-binding activity using the TransAM p65 transcription factor assay kit (Active Motif, Carlsbad, Calif.).
# [5] = DDAG significant at higher doses
Compound,GM-CSF level in BAL fluid [1],TNF-α level in BAL fluid [1],serum OVA-specific IgG2a level [2],serum OVA-specific IgE level [2],"serum OVA-specific IgG1 level [2, 5]","serum total IgE level [2, 5]",serum nitrate nitrite level [3],nuclear p65 DNA-binding activity in lung tissue nuclear extract [4],nuclear p65 amount in lung tissue nuclear extract [4]
C=C1CC[C@@H]2[C@](C)(CO)[C@H](O)CC[C@@]2(C)[C@@H]1C/C=C1/C(=O)OC[C@H]1O [Andrographolide],inhibited,inhibited,inhibition,significantly lowered,inhibition,significantly lowered,,,
"C=C1CCC2C(C)(CO)C(O)CCC2(C)C1C=CC1=CCOC1=O (stereo not drawn) [DDAG, 14-Deoxy-11,12-didehydroandrographolide]",,,no effects,strongly suppressed,,to a lesser extent,reduce,significantly (P<0.05) reduced,significantly (P<0.05) reduced
